In brackets after ≈: the same amount, converted by molar mass. Read-outs that look alike come from different tables or passages of the source.
Experiments:
S. aureus NCTC8325 = experiment: Antibacterial activity assay (MIC, broth microdilution); type: cell-based, Staphylococcus aureus; conditions: for MIC: Staphylococcus aureus
MRSA ATCC43300 = experiment: as above; type: cell-based, Staphylococcus aureus; conditions: for MIC: Staphylococcus aureus
MRSA SCCmec VT = experiment: as above; type: cell-based, Staphylococcus aureus; conditions: for MIC: Staphylococcus aureus, MRSA
[1] = tested on: antibiotic-resistant Staphylococcus aureus; experiment: MIC against all strains of Table 4; type: cell-based; conditions: agent alone, all the bacterial strains under the examination
Method: The antimicrobial activity was based on MIC and MBC; MIC is the minimum inhibitory concentration and MBC is the minimum bactericidal concentration. The MIC of individual test agents against MRSA USA300 strains was determined using the broth microdilution method according to CLSI guidelines. Briefly, overnight bacterial cultures in LB medium were diluted 1:50 in fresh LB medium and incubated at 37° C. until reaching an OD600 of 0.5 to 0.6. Bacterial suspensions were diluted to a final concentration of 5×10^5 cfu/mL in fresh CAMHB and then exposed to each test agent at increasing doses in triplicate in 96-well plates for 24 hours at 37° C. The MIC of each agent was defined as the lowest concentration without visible bacterial growth. […] The lowest broth dilution that had no viable bacteria was considered the MBC.
Then, the combination effect was measured by calculating their corresponding fractional inhibitory concentration index (FICI) with the equation ΣFIC (FICi)=FICA+FICB=(CombA/MICA)+(CombB/MICB), where MICA and MICB are the MICs of drugs A and B alone, respectively, and CombA and CombB are the concentrations of drugs A and B in combination, respectively. […]
The antibacterial activity of the SC5005-DHA composition against a series of antibiotic-resistant Staphylococcus aureus was analyzed, and the results are shown in Table 4.

[2] = Antiproliferation assay (MTT); type: cell-based; conditions: human, read-out: CC50 of SC5005
Description: The murine macrophage cell line RAW264.7 (BCRC) and human cervical epithelioid carcinoma cell line HeLa (BCRC) were maintained in Dulbecco's modified Eagle's medium (DMEM; Gibco-BRL) supplemented with 10% heat-inactivated FBS (Gibco-BRL). The human embryonic kidney cell line HEK-293 (BCRC) and the immortalized nontumorigenic keratinocyte cell line HaCaT (obtained from Dr. Yung-Chiy Chang, National Taiwan University, Taiwan) were maintained in Roswell Park Memorial Institute (RPMI; Gibco-BRL) medium supplemented with 10% heat-inactivated FBS. Cells were cultured in T-75 flasks at 37° C. in a 5% CO2 atmosphere.
The effects of SC5005 and DHA on the viability of mammalian cells were assessed using a 3-(4,5-dimethylthiazol-2-yl)-2,5-diphenyl-2H-tetrazolium bromide (MTT) assay in six replicates per treatment group. Briefly, cells were seeded into 96-well, flat-bottomed plates at 10^4 cells/well, cultured for 24 hours, and then exposed to SC5005 at concentrations ranging from 5-30 mg/L or the combination of SC5005 with designated concentrations of DHA for 24 hours. Controls were treated with DMSO and ethanol vehicles at concentrations equal to those for drug-treated cells. At the end of treatments, the medium was replaced with 0.5 g/L MTT-containing culture medium, and the cells were incubated in a CO2 incubator at 37° C. for an additional 1.5 hours. Supernatants were removed from the wells, and the reduced MTT dye was solubilized in DMSO followed by measuring the absorbance at 570 nm of each well using a VersaMax microplate reader (Molecular Devices, USA).

MRSA USA300 = experiment: Time-kill kinetics (cfu assay); type: cell-based, Staphylococcus aureus; conditions: SC5005 4×MIC, 1 mg/L; FIG. 1
Method: The number of viable bacteria in broth after each exposure period was enumerated by a cfu assay and expressed as cfu/mL; the data shown are the mean±SD (standard deviation) of independent experiments. […] The number of viable bacteria in the broth after each exposure period was calculated by a cfu assay (cfu/mL); the data are shown as the mean±SD of three independent experiments (n=3 for each group). Since the standard deviation of each point is very small, the error line is not shown in each graph. The horizontal dashed line in the upper left graph and the upper right graph represents […] of the bacterial cells killed. In addition, the blank controls in FIG. 1 are shown as filled diamonds.
In this experiment, the inventor analyzed the time-kill kinetics of SC5005, DHA, and a combination thereof against Staphylococcus aureus NCTC8325 and MRSA USA300, and the results are shown in FIG. 1. It can be seen in FIG. 1 that SC5005 killed more than 99.9% of the bacteria within 24 hours. […] Besides, it is well known in the art that Staphylococcus aureus can enter a dormant state (i.e., become the so-called persister cells) and develop resistance to antibiotic treatment, thus leading to repeated bacterial infections.

MIC (S. aureus NCTC8325; NCTC8325, +8 mg/L DHA): 0.0019 ng/mL (≈ 0.00364 nM) | MIC (S. aureus NCTC8325; NCTC8325, agent alone): 250 ng/mL (≈ 479 nM) | MIC (MRSA ATCC43300; +8 mg/L DHA): 0.00024 µg/mL (≈ 0.46 nM) | MIC (MRSA ATCC43300; agent alone): 0.25 µg/mL (≈ 479 nM) | MIC (MRSA SCCmec VT; +8 mg/L DHA): 0.0019 ng/mL (≈ 0.00364 nM) | MIC (MRSA SCCmec VT; agent alone): 250 ng/mL (≈ 479 nM) | MIC [1]: 0.25 µg/mL
SMILES: O=C(Nc1ccc(Cl)c(C(F)(F)F)c1)C(CCCl)C(=O)Nc1ccc(Cl)c(C(F)(F)F)c1 [SC5005]
combination effect (S. aureus NCTC8325; MIC, +8 mg/L DHA): (Syn) (Synergy (Syn) was defined as an FICI≤0.5) | combination effect (MRSA ATCC43300; MIC, +8 mg/L DHA): (Syn) (Synergy (Syn) was defined as an FICI≤0.5) | combination effect (MRSA SCCmec VT; MIC, +8 mg/L DHA): (Syn) (Synergy (Syn) was defined as an FICI≤0.5) | CC50 at 24 h ([2]; HEK-293 cells, DHA 0 mg/L): 14.1 ± 1.4 µg/mL | CC50 at 24 h ([2]; HEK-293 cells, DHA 4 mg/L): 15.6 ± 0.6 µg/mL | CC50 at 24 h ([2]; HEK-293 cells, DHA 8 mg/L): 14.9 ± 1.6 µg/mL | CC50 at 24 h ([2]; HEK-293 cells, DHA 16 mg/L): 14 ± 0.8 µg/mL | CC50 at 24 h ([2]; HaCaT keratinocyte cells, DHA 0 mg/L): 18 ± 1.7 µg/mL | CC50 at 24 h ([2]; HaCaT keratinocyte cells, DHA 4 mg/L): 19.5 ± 1.7 µg/mL | CC50 at 24 h ([2]; HaCaT keratinocyte cells, DHA 8 mg/L): 20.5 ± 0.3 µg/mL | CC50 at 24 h ([2]; HaCaT keratinocyte cells, DHA 16 mg/L): 18.1 ± 1.6 µg/mL | CC50 at 24 h ([2]; HeLa cells, DHA 0 mg/L): 22.5 ± 0.7 µg/mL | CC50 at 24 h ([2]; HeLa cells, DHA 4 mg/L): 24.2 ± 3.6 µg/mL | CC50 at 24 h ([2]; HeLa cells, DHA 8 mg/L): 21.9 ± 1.6 µg/mL | CC50 at 24 h ([2]; HeLa cells, DHA 16 mg/L): 21.4 ± 1.4 µg/mL | bacteria killed within 24 hours (MRSA USA300): more than 99.9%

— patent publication US20260130885A1, “ANTIMICROBIAL COMPOSITIONS, PHARMACEUTICAL COMPOSITIONS AND USE THEREOF” (priority 2022, published 2026)
